From patent US11590139B2, “Substituted aminopurine compounds, compositions thereof, and methods of treatment therewith” (Signal Pharmaceuticals, LLC, priority 2014, dated 2023)

tested on: Lox-IMVI melanoma cell line; assay: Lox-IMVI anti-proliferative assay (growth inhibition, Cell Titer-Glo); assay type: cell-based, human; settings: Homo sapiens; Lox-IMVI anti-proliferative assay, IC50 activity level; read-out: Activity
Summary of the method: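 Viability read by ATP luminescence (Cell Titer-Glo) at t0 and after 72 h at 37 °C, 5% CO2, with normalisation to DMSO-treated cells. Compound tested at 0.5 nM–10 μM in 3-fold, 10-point series (0.2% DMSO final) on Lox-IMVI in RPMI+10% FBS; IC50 by 4-parameter sigmoidal fit.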

Question: Which IC50 does the source give for NC(=O)[C@H]1CC[C@@H](n2c(Nc3c(Cl)cc(Cl)cc3Cl)nc3cnc(N[C@H]4CCCC[C@H]4O)nc32)CC1 [Example 514, (1R,4s)-4-(2-((1S,2R)-2-hydroxycyclohexylamino)-8-(2,4,6-trichlorophenylamino)-9H-purin-9-yl)cyclohexanecarboxamide] here?
Answer: The IC50 was greater than 1000 nM.

Question: How did the IC50 turn out when NC(=O)[C@H]1CC[C@@H](n2c(Nc3c(F)cc(Cl)cc3F)nc3cnc(N[C@H]4CCCC[C@H]4O)nc32)CC1 [Example 515, (1R,4s)-4-(8-(4-chloro-2,6-difluorophenylamino)-2-((1S,2R)-2-hydroxycyclohexylamino)-9H-purin-9-yl)cyclohexanecarboxamide] was run?
Answer: Its IC50 is greater than 1000 nM.

Question: Which IC50 does the source give for NC(=O)[C@H]1CC[C@@H](n2c(Nc3c(Cl)cc(F)cc3Cl)nc3cnc(N[C@H]4CCCC[C@H]4O)nc32)CC1 [Example 516, (1R,4s)-4-(8-(2,6-dichloro-4-fluorophenylamino)-2-((1S,2R)-2-hydroxycyclohexylamino)-9H-purin-9-yl)cyclohexanecarboxamide] here?
Answer: The IC50 was greater than 1000 nM.

Question: With N#Cc1cc(F)c(Nc2nc3cnc(N[C@H]4CCCC[C@H]4O)nc3n2[C@H]2CC[C@@H](C(N)=O)CC2)c(Cl)c1 [Example 517, (1R,4s)-4-(8-(2-chloro-4-cyano-6-fluorophenylamino)-2-((1S,2R)-2-hydroxycyclohexylamino)-9H-purin-9-yl)cyclohexanecarboxamide] as the compound, how does the IC50 read?
Answer: The IC50 was greater than 1000 nM.

Question: Which IC50 does the source give for N#Cc1cc(Cl)c(Nc2nc3cnc(N[C@@H]4CCOC4)nc3n2[C@H]2CC[C@@H](C(N)=O)CC2)c(Cl)c1 [Example 518, (1S,4s)-4-(8-(2,6-dichloro-4-cyanophenylamino)-2-((R)-tetrahydrofuran-3-ylamino)-9H-purin-9-yl)cyclohexanecarboxamide] here?
Answer: The IC50 was 250 to 500 nM.

Question: With N#Cc1cc(Cl)c(Nc2nc3cnc(N[C@H]4CCCC[C@H]4O)nc3n2[C@H]2CC[C@@H](C(N)=O)CC2)c(Cl)c1 [Example 519, (1R,4s)-4-(8-(2,6-dichloro-4-cyanophenylamino)-2-((1S,2R)-2-hydroxycyclohexylamino)-9H-purin-9-yl)cyclohexanecarboxamide] as the compound, how does the IC50 read?
Answer: The IC50 was greater than 1000 nM.

Question: For N#Cc1cc(F)c(Nc2nc3cnc(N[C@@H]4CCOC4)nc3n2[C@H]2CC[C@@H](C(N)=O)CC2)c(Cl)c1 [Example 520, (1S,4s)-4-(8-(2-chloro-4-cyano-6-fluorophenylamino)-2-((R)-tetrahydrofuran-3-ylamino)-9H-purin-9-yl)cyclohexanecarboxamide], which IC50 is on record?
Answer: The IC50 was 250 to 500 nM.

Question: Which IC50 does the source give for C[C@]1(C(N)=O)CC[C@@H](n2c(Nc3c(F)cc(Cl)cc3F)nc3cnc(NC4CCOCC4)nc32)CC1 [Example 521, (1s,4s)-4-(8-(4-chloro-2,6-difluorophenylamino)-2-(tetrahydro-2H-pyran-4-ylamino)-9H-purin-9-yl)-1-methylcyclohexanecarboxamide] here?
Answer: Its IC50 is less than 250 nM.

Question: With C[C@]1(C(N)=O)CC[C@@H](n2c(Nc3c(Cl)cc(Cl)cc3Cl)nc3cnc(NC4CCOCC4)nc32)CC1 [Example 522, (1s,4s)-1-methyl-4-(2-(tetrahydro-2H-pyran-4-ylamino)-8-(2,4,6-trichlorophenylamino)-9H-purin-9-yl)cyclohexanecarboxamide] as the compound, how does the IC50 read?
Answer: Its IC50 is less than 250 nM.

Question: NC(=O)[C@H]1CC[C@@H](n2c(Nc3c(Cl)cc(C(F)(F)F)cc3Cl)nc3cnc(N[C@@H]4CCOC4)nc32)CC1 [Example 523, (1S,4s)-4-(8-(2,6-dichloro-4-(trifluoromethyl)phenylamino)-2-((R)-tetrahydrofuran-3-ylamino)-9H-purin-9-yl)cyclohexanecarboxamide] was tested. Which IC50 did it give?
Answer: The IC50 was greater than 1000 nM.

Question: With C[C@]1(C(N)=O)CC[C@@H](n2c(Nc3c(F)cc(C#N)cc3F)nc3cnc(NC4CCOCC4)nc32)CC1 [Example 524, (1s,4s)-4-(8-(4-cyano-2,6-difluorophenylamino)-2-(tetrahydro-2H-pyran-4-ylamino)-9H-purin-9-yl)-1-methylcyclohexanecarboxamide] as the compound, how does the IC50 read?
Answer: The IC50 was less than 250 nM.
